pIC50: −log10 of the molar value.
target: T1, wild-type human ALK cytoplasmic domain (amino acids 1058-1620) (Homo sapiens, UniProt Q9UM73); experiment: ALK Inhibition in Enzyme Assay (Lance TR-FRET); format: biochemical; details: not given
T1 construct: The cytoplasmic domain (amino acids 1058-1620) of wild-type human ALK; GST (N); made in house; host or cells: SF9 insect cells
How it was run: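 Purified enzyme phosphorylated a biotinylated peptide substrate for 90 minutes at room temperature. Reactions were stopped with 20 mM EDTA in 50 mM Tris (pH 7.5), 100 mM NaCl, 0.05% BSA, 0.1% Tween-20. Phosphopeptide was detected by TR-FRET with SA-APC and Eu-W1024 anti-phosphotyrosine antibody PT66, excitation 320 nm.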

T1 sequence (Q9UM73 1058-1620): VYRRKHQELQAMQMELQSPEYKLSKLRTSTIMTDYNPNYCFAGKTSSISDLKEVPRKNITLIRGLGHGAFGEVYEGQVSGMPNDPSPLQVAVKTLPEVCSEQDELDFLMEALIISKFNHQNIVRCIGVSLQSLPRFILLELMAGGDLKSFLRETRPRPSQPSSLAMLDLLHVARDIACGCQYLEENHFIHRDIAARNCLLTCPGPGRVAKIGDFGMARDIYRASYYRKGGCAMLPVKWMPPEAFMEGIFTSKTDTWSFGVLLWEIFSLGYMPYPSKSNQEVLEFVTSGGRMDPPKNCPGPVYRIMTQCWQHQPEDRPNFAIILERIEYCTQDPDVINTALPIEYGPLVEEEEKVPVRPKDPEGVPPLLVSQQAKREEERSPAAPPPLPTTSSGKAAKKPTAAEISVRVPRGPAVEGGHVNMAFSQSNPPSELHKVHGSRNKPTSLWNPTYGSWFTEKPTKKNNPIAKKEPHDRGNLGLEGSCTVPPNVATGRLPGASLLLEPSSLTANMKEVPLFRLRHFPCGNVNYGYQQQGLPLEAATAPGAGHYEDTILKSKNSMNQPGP

Row | pIC50 | Structure (SMILES)
1 | > 7.30 | COc1cc(Nc2nccc(N3CCC[C@H](C(=O)NCc4cccc(N5CCOCC5)c4)C3)n2)cc(OC)c1OC [Example 85, (S)-N-(3-(4-morpholinyl)benzyl)-1-(2-((3,4,5-trimethoxyphenyl)amino)-4-pyrimidinyl)-3-piperidinecarboxamide]

same assay, conditions: 2 nM enzyme, ATP at 40 μM (Km apparent), 90 minutes, mean of three replicates; read-out: ALK IC50

Row | Structure (SMILES) | pIC50
2 | COc1cc(Nc2nccc(N3CCC[C@H](C(=O)NCc4ccc5[nH]c(C)cc5c4)C3)n2)cc(OC)c1OC [Example 76, (S)-N-((2-methyl-1H-indol-5-yl)methyl)-1-(2-((3,4,5-trimethoxyphenyl)amino)-4-pyrimidinyl)-3-piperidinecarboxamide] | 7.00 to 7.30
3 | COc1cc(Nc2nccc(N3CCC[C@H](C(=O)NCc4ccc5c(c4)OCCO5)C3)n2)cc(OC)c1OC [Example 77, (S)-N-(2,3-dihydro-1,4-benzodioxin-6-ylmethyl)-1-(2-((3,4,5-trimethoxyphenyl)amino)-4-pyrimidinyl)-3-piperidinecarboxamide] | 5.30 to 6.00
4 | COc1cc(Nc2nccc(N3CCC[C@H](C(=O)NCc4cccc(OC(F)F)c4)C3)n2)cc(OC)c1OC [Example 79, (S)-N-(3-(difluoromethoxy)benzyl)-1-(2-((3,4,5-trimethoxyphenyl)amino)-4-pyrimidinyl)-3-piperidinecarboxamide] | > 7.30
5 | COc1cc(Nc2nccc(N3CCC[C@H](C(=O)NCc4ccc(C)c(C)c4)C3)n2)cc(OC)c1OC [Example 83, (S)-N-(3,4-dimethylbenzyl)-1-(2-((3,4,5-trimethoxyphenyl)amino)-4-pyrimidinyl)-3-piperidinecarboxamide] | 6.00 to 7.00
6 | COc1cc(Nc2nccc(N3CCC[C@H](C(=O)NCc4ccc(C(F)(F)F)c(F)c4)C3)n2)cc(OC)c1OC [Example 86, (S)-N-(3-fluoro-4-(tritluoromethyl)benzyl)-1-(2-((3,4,5-trimethoxyphenyl)amino)-4-pyrimidinyl)-3-piperidinecarboxamide] | 6.00 to 7.00
7 | COc1cc(Nc2nccc(N3CCC[C@H](C(=O)NCc4cccc(OC(C)C)c4)C3)n2)cc(OC)c1OC [Example 87, (S)-N-(3-(1-methylethoxy)benzyl)-1-(2-((3,4,5-trimethoxyphenyl)amino)-4-pyrimidinyl)-3-piperidinecarboxamide] | 6.00 to 7.00
8 | COc1cc(Nc2nccc(N3CCC[C@H](C(=O)NCc4ccc(OC(C)C)cc4)C3)n2)cc(OC)c1OC [Example 88, (S)-N-(4-(1-methylethoxy)benzyl)-1-(2-((3,4,5-trimethoxyphenyl)amino)-4-pyrimidinyl)-3-piperidinecarboxamide] | 7.00 to 7.30
9 | COc1cc(Nc2nccc(N3CCC[C@H](C(=O)NCCc4cccc(C)c4)C3)n2)cc(OC)c1OC [Example 89, (S)-N-(2-(3-methylphenyl)ethyl)-1-(2-((3,4,5-trimethoxyphenyl)amino)-4-pyrimidinyl)-3-piperidinecarboxamide] | 7.00 to 7.30
10 | COc1ccc(CCNC(=O)[C@H]2CCCN(c3ccnc(Nc4cc(OC)c(OC)c(OC)c4)n3)C2)cc1 [Example 93, (S)-N-(2-(4-methoxyphenyl)ethyl)-1-(2-((3,4,5-trimethoxyphenyl)amino)-4-pyrimidinyl)-3-piperidinecarboxamide] | 6.00 to 7.00
11 | COc1cc(Nc2nccc(N3CCC[C@H](C(=O)NCCc4ccc(F)cc4)C3)n2)cc(OC)c1OC [Example 100, (S)-N-(2-(4-fluorophenyl)ethyl)-1-(2-((3,4,5-trimethoxyphenyl)amino)-4-pyrimidinyl)-3-piperidinecarboxamide] | 6.00 to 7.00

Other lines, results leading:

Row | pIC50 | Structure (SMILES)
12 | 5.30 to 6.00 | COc1cc(Nc2nccc(N3CCC[C@H](C(=O)NCc4ccc(N5CCOCC5)cc4)C3)n2)cc(OC)c1OC [Example 78, (S)-N-(4-(4-morpholinyl)benzyl)-1-(2-((3,4,5-trimethoxyphcnyl)amino)-4-pyrimidinyl)-3-piperidinecarboxamide]
13 | 5.00 to 5.30 | COc1cc(Nc2nccc(N3CCC[C@H](C(=O)NCc4cc(C)cc(C)c4)C3)n2)cc(OC)c1OC [Example 81, (S)-N-(3,5-dimethylbenzyl)-1-(2-((3,4,5-trimethoxyphenyl)amino)-4-pyrimidinyl)-3-piperidinecarboxamide]
14 | 5.30 to 6.00 | COc1cc(Nc2nccc(N3CCC[C@H](C(=O)NCc4cccc(NS(C)(=O)=O)c4)C3)n2)cc(OC)c1OC [Example 84, (S)-N-(3-((methylsulfonyl)amino)benzyl)-1-(2-((3,4,5-trimethoxyphenyl)amino)-4-pyrimidinyl)-3-piperidinecarboxamide]
15 | 6.00 to 7.00 | COc1cc(Nc2nccc(N3CCC[C@H](C(=O)NCCc4ccc(Oc5ccccc5)cc4)C3)n2)cc(OC)c1OC [Example 90, (S)-N-(2-(4-phenoxyphenyl)ethyl)-1-(2-((3,4,5-trimethoxyphenyl)amino)-4-pyrimidinyl)-3-piperidinecarboxamide]
16 | 7.00 to 7.30 | COc1cc(Nc2nccc(N3CCC[C@H](C(=O)NCCc4ccc(C(F)(F)F)cc4)C3)n2)cc(OC)c1OC [Example 91, (S)-N-(2-(4-(trifluoromethyl)phenyl)ethyl)-1-(2-((3,4,5-trimethoxyphenyl)amino)-4-pyrimidinyl)-3-piperidinecarboxamide]
17 | 6.00 to 7.00 | COc1cc(Nc2nccc(N3CCC[C@H](C(=O)NCCc4ccc(C)cc4)C3)n2)cc(OC)c1OC [Example 92, (S)-N-(2-(4-methylphenyl)ethyl)-1-(2-((3,4,5-trimethoxyphenyl)amino)-4-pyrimidinyl)-3-piperidinecarboxamide]
18 | > 7.30 | COc1cc(Nc2nccc(N3CCC[C@H](C(=O)NCCc4cccc(Br)c4)C3)n2)cc(OC)c1OC [Example 94, (S)-N-(2-(3-bromophenyl)ethyl)-1-(2-((3,4,5-trimethoxyphenyl)amino)-4-pyrimidinyl)-3-piperidinecarboxamide]
19 | 6.00 to 7.00 | COc1cc(Nc2nccc(N3CCC[C@H](C(=O)NCCc4cccc(F)c4)C3)n2)cc(OC)c1OC [Example 95, (S)-N-(2-(3-fluorophenyl)ethyl)-1-(2-((3,4,5-trimethoxyphenyl)amino)-4-pyrimidinyl)-3-piperidinecarboxamide]
20 | > 7.30 | COc1cc(Nc2nccc(N3CCC[C@H](C(=O)NCCc4cccc(C(F)(F)F)c4)C3)n2)cc(OC)c1OC [Example 96, (S)-N-(2-(3-(trifluoromethyl)phenyl)ethyl)-1-(2-((3,4,5-trimethoxyphenyl)amino)-4-pyrimidinyl)-3-piperidinecarboxamide]
21 | 5.30 to 6.00 | COc1cc(Nc2nccc(N3CCC[C@H](C(=O)NCCc4ccc(C)c(C)c4)C3)n2)cc(OC)c1OC [Example 97, (S)-N-(2-(3,4-dimethylphenyl)ethyl)-1-(2-((3,4,5-trimethoxyphenyl)amino)-4-pyrimidinyl)-3-piperidinecarboxamide]
22 | 6.00 to 7.00 | COc1cc(Nc2nccc(N3CCC[C@H](C(=O)NC[C@@H](C)c4ccccc4)C3)n2)cc(OC)c1OC [Example 98, (S)-N-((S)-2-phenylpropyl)-1-(2-((3,4,5-trimethoxyphenyl)amino)-4-pyrimidinyl)-3-piperidinecarboxamide]
23 | 5.30 to 6.00 | COc1cc(Nc2nccc(N3CCC[C@H](C(=O)NCCc4ccccc4Cl)C3)n2)cc(OC)c1OC [Example 99, (S)-N-(2-(2-chlorophenyl)ethyl)-1-(2-((3,4,5-trimethoxyphenyl)amino)-4-pyrimidinyl)-3-piperidinecarboxamide]
